In patent US9695154B2, “Heteroaryl inhibitors of sumo activating enzyme” (MILLENNIUM PHARMACEUTICALS, INC., priority 2013, dated 2017):

Biological target: T1, recombinant human SAE enzyme (Homo sapiens, UniProt Q9UBT2)
T1 sequence (Q9UBT2 1-640): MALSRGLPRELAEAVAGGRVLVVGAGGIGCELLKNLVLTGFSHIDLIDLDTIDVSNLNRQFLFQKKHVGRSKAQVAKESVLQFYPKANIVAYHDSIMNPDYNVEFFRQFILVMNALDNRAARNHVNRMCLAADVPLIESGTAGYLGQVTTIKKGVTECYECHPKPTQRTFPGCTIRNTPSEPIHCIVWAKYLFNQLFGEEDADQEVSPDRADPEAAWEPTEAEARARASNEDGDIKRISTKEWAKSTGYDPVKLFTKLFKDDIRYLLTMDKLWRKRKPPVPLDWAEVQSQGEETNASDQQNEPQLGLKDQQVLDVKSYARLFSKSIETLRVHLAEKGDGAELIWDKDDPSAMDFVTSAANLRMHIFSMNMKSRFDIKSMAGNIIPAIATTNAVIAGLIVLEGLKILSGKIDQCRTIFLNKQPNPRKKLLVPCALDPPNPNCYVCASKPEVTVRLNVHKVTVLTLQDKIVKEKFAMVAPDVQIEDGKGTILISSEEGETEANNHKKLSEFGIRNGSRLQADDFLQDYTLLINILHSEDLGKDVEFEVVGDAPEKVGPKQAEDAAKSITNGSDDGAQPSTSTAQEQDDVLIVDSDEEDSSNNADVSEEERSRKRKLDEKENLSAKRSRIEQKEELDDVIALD
T1 sequence (Q9UBE0 1-346 partner): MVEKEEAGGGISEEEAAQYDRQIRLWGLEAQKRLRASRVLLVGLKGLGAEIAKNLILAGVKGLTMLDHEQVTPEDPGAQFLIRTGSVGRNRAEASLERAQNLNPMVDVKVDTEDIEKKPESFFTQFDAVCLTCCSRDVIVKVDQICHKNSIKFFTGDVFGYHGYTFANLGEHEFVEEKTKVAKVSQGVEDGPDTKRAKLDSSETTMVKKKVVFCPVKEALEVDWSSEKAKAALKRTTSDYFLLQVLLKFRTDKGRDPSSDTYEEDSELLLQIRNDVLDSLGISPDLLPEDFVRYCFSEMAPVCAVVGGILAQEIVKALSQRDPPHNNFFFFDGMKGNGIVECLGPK
Assay: SAE HTRF Enzyme Assay
Type: biochemical
Details: for IC50: class symbols A-C; for inhibition at 0.111 µM: compound concentration 0.111 μM, read-out: Percent Inhibition
Outline: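 Reaction with 0.11 nM recombinant human SAE, 0.5 μM ATP, 0.01 μM Ubc9-GST, 0.125 μM Sumo-Flag in HEPES pH 7.5, MgCl2, GSH, BSA, 105 min at 24 °C. Stopped with EDTA/KF buffer carrying Eu-anti-Flag and anti-GST-APC; HTRF read after 2 h; % inhibition or IC50.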

C=CS(=O)(=O)c1cccc(Cn2ccc(C(=O)c3cncnc3N[C@@H]3C[C@H](COS(N)(=O)=O)[C@@H](O)[C@H]3O)n2)c1 [Compound I-321, [(1R,2R,3S,4R)-2,3-Dihydroxy-4-{[5-({1-[3-(vinylsulfonyl)benzyl]-1H-pyrazol-3-yl}carbonyl)pyrimidin-4-yl]amino}cyclopentyl]methyl sulfamate]
IC50: 0.01 to 0.1 µM
inhibition at 0.111 µM: 89%

NS(=O)(=O)OC[C@H]1C[C@@H](Nc2ncncc2C(=O)c2ccn(Cc3cc4ccccc4s3)c2)[C@@H](F)[C@@H]1O [Compound I-322, {(1R,2R,3R,4R)-4-[(5-{[1-(1-benzothiophen-2-ylmethyl)-1H-pyrrol-3-yl]carbonyl}pyrimidin-4-yl)amino]-3-fluoro-2-hydroxycyclopentyl}methyl sulfamate]
IC50: < 0.01 µM
inhibition at 0.111 µM: 99%

NS(=O)(=O)OC[C@H]1C[C@@H](Nc2ncncc2C(=O)c2ccn(Cc3cc(Br)ccn3)n2)[C@H](O)[C@@H]1O [Compound I-324, [(1R,2R,3S,4R)-4-{[5-({1-[(4-bromopyridin-2-yl)methyl]-1H-pyrazol-3-yl}carbonyl)pyrimidin-4-yl]amino}-2,3-dihydroxycyclopentyl]methyl sulfamate]
IC50: < 0.01 µM
inhibition at 0.111 µM: 100%

COc1cccc(Cn2ccc(C(=O)c3cncnc3N[C@@H]3C[C@H](COS(N)(=O)=O)[C@@H](O)[C@H]3O)n2)c1 [Compound I-325, {(1R,2R,3S,4R)-2,3-dihydroxy-4-[(5-{[1-(3-methoxybenzyl)-1H-pyrazol-3-yl]carbonyl}pyrimidin-4-yl)amino]cyclopentyl}methyl sulfamate]
IC50: < 0.01 µM
inhibition at 0.111 µM: 99%

NS(=O)(=O)OC[C@H]1C[C@@H](Nc2ncncc2C(=O)c2ccn(Cc3cc(F)c(F)c(F)c3)n2)[C@H](O)[C@@H]1O [Compound I-326, {(1R,2R,3S,4R)-2,3-dihydroxy-4-[(5-{[1-(3,4,5-trifluorobenzyl)-1H-pyrazol-3-yl]carbonyl}pyrimidin-4-yl)amino]cyclopentyl}methyl sulfamate]
IC50: < 0.01 µM
inhibition at 0.111 µM: 95%

NS(=O)(=O)OC[C@H]1C[C@@H](Nc2ncncc2C(=O)c2ccn(Cc3cccc(F)c3F)n2)[C@H](O)[C@@H]1O [Compound I-327, {(1R,2R,3S,4R)-4-[(5-{[1-(2,3-difluorobenzyl)-1H-pyrazol-3-yl]carbonyl}pyrimidin-4-yl)amino]-2,3-dihydroxycyclopentyl}methyl sulfamate]
IC50: < 0.01 µM
inhibition at 0.111 µM: 99%

NS(=O)(=O)OC[C@H]1C[C@@H](Nc2ncncc2C(=O)c2ccn(Cc3ccc(F)cc3C(F)(F)F)n2)C[C@@H]1O [Compound I-328, [(1R,2S,4R)-4-{[5-({1-[4-fluoro-2-(trifluoromethyl)benzyl]-1H-pyrazol-3-yl}carbonyl)pyrimidin-4-yl]amino}-2-hydroxycyclopentyl]methyl sulfamate]
IC50: 0.01 to 0.1 µM
inhibition at 0.111 µM: 65%

NS(=O)(=O)OC[C@H]1C[C@@H](Nc2ncncc2C(=O)c2ccn(Cc3cc(F)c(F)cc3F)n2)C[C@@H]1O [Compound I-329, {(1R,2S,4R)-2-hydroxy-4-[(5-{[1-(2,4,5-trifluorobenzyl)-1H-pyrazol-3-yl]carbonyl}pyrimidin-4-yl)amino]cyclopentyl}methyl sulfamate]
IC50: < 0.01 µM
inhibition at 0.111 µM: 93%

C#CCn1ccc(C(=O)c2cncnc2N[C@@H]2C[C@H](COS(N)(=O)=O)[C@@H](O)C2)c1 [Compound I-330, {(1R,2S,4R)-2-hydroxy-4-[(5-{[1-{prop-2-yn-1-yl)-1H-pyrrol-3-yl]carbonyl}pyrimidin-4-yl)amino]cyclopentyl}methyl sulfamate]
IC50: 0.01 to 0.1 µM
inhibition at 0.111 µM: 82%

NS(=O)(=O)OC[C@H]1C[C@@H](Nc2ncncc2C(=O)c2ccn(Cc3ccc(Cl)c(Cl)c3)c2)[C@@H](F)[C@@H]1O [Compound I-331, {(1R,2R,3R,4R)-4-[(5-{[1-(3,4-dichlorobenzyl)-1H-pyrrol-3-yl]carbonyl}pyrimidin-4-yl)amino]-3-fluoro-2-hydroxycyclopentyl}methyl sulfamate]
IC50: < 0.01 µM
inhibition at 0.111 µM: 99%

NS(=O)(=O)OC[C@H]1C[C@@H](Nc2ncncc2C(=O)c2ccn(Cc3cccc(Br)c3)c2)C[C@@H]1O [Compound I-333, {(1R,2S,4R)-4-[(5-{[1-(3-bromobenzyl)-1H-pyrrol-3-yl]carbonyl}pyrimidin-4-yl)amino]-2-hydroxycyclopentyl}methyl sulfamate]
IC50: < 0.01 µM
inhibition at 0.111 µM: 99%

NS(=O)(=O)OC[C@H]1C[C@@H](Nc2ncncc2C(=O)c2ccn(Cc3cc(F)cc(Cl)c3)n2)[C@H](O)[C@@H]1O [Compound I-334, {(1R,2R,3S,4R)-4-[(5-{[1-(3-chloro-5-fluorobenzyl)-1H-pyrazol-3-yl]carbonyl}pyrimidin-4-yl)amino]-2,3-dihydroxycyclopentyl}methyl sulfamate]
IC50: < 0.01 µM
inhibition at 0.111 µM: 98%

NS(=O)(=O)OC[C@H]1C[C@@H](Nc2ncncc2C(=O)c2cc(CO)n(Cc3ccccc3)n2)C[C@@H]1O [Compound I-335, {(1R,2S,4R)-4-[(5-{[1-Benzyl-5-(hydroxymethyl)-1H-pyrazol-3-yl]carbonyl}pyrimidin-4-yl)amino]-2-hydroxycyclopentyl}methyl sulfamate]
IC50: < 0.01 µM
inhibition at 0.111 µM: 97%

NS(=O)(=O)OC[C@H]1C[C@@H](Nc2ncncc2C(=O)c2ccn(Cc3ccc(F)cc3F)n2)[C@H](O)[C@@H]1O [Compound I-336, {(1R,2R,3S,4R)-4-[(5-{[1-(2,4-difluorobenzyl)-1H-pyrazol-3-yl]carbonyl}pyrimidin-4-yl)amino]-2,3-dihydroxycyclopentyl}methyl sulfamate]
IC50: < 0.01 µM
inhibition at 0.111 µM: 97%

NS(=O)(=O)OC[C@H]1C[C@@H](Nc2ncncc2C(=O)c2ccn(Cc3ccc(Cl)c(Br)c3)c2)[C@@H](F)[C@@H]1O [Compound I-337, {(1R,2R,3R,4R)-4-[(5-{[1-(3-bromo-4-chlorobenzyl)-1H-pyrrol-3-yl]carbonyl}pyrimidin-4-yl)amino]-3-fluoro-2-hydroxycyclopentyl}methyl sulfamate]
IC50: < 0.01 µM
inhibition at 0.111 µM: 98%

NS(=O)(=O)OC[C@H]1C[C@@H](Nc2ncncc2C(=O)c2ccn(Cc3ccccc3F)n2)[C@H](O)[C@@H]1O [Compound I-338, {(1R,2R,3S,4R)-4-[(5-{[1-(2-fluorobenzyl)-1H-pyrazol-3-yl]carbonyl}pyrimidin-4-yl)amino]-2,3-dihydroxycyclopentyl}methyl sulfamate]
IC50: < 0.01 µM
inhibition at 0.111 µM: 99%

CC#CCn1ccc(C(=O)c2cncnc2N[C@@H]2C[C@H](COS(N)(=O)=O)[C@@H](O)C2)c1 [Compound I-340, {(1R,2S,4R)-4-[(5-{[1-(but-2-yn-1-yl)-1H-pyrrol-3-yl]carbonyl}pyrimidin-4-yl)amino]-2-hydroxycyclopentyl}methyl sulfamate]
IC50: < 0.01 µM
inhibition at 0.111 µM: 94%

NS(=O)(=O)OC[C@H]1C[C@@H](Nc2ncncc2C(=O)c2ccn(Cc3csc4ccc(Cl)cc34)c2)C[C@@H]1O [Compound I-341, [(1R,2S,4R)-4-{[5-({1-[(5-chloro-1-benzothiophen-3-yl)methyl]-1H-pyrrol-3-yl}carbonyl)pyrimidin-4-yl]amino}-2-hydroxycyclopentyl]methyl sulfamate]
IC50: < 0.01 µM
inhibition at 0.111 µM: 98%

NS(=O)(=O)OC[C@@H]1C[C@@H](Nc2ncncc2C(=O)c2ccn(Cc3ccccc3)n2)C[C@@H]1O [Compound I-342, [(1S,2S,4R)-4-({5-[(1-benzyl-1H-pyrazol-3-yl)carbonyl]pyrimidin-4-yl}amino)-2-hydroxycyclopentyl]methyl sulfamate]
IC50: 0.01 to 0.1 µM
inhibition at 0.111 µM: 79%

NS(=O)(=O)OC[C@H]1C[C@@H](Nc2ncncc2C(=O)c2ccn(Cc3ccc(F)c(C(F)(F)F)c3)n2)[C@H](O)[C@@H]1O [Compound I-343, [(1R,2R,3S,4R)-4-{[5-({1-[4-fluoro-3-(trifluoromethyl)benzyl]-1H-pyrazol-3-yl}carbonyl)pyrimidin-4-yl]amino}-2,3-dihydroxycyclopentyl]methyl sulfamate]
IC50: < 0.01 µM
inhibition at 0.111 µM: 97%

CC(C)=C(C)n1ccc(C(=O)c2cncnc2N[C@@H]2C[C@H](COS(N)(=O)=O)[C@@H](O)C2)n1 [Compound I-344, {(1R,2S,4R)-2-hydroxy-4-[(5-{[1-(3-methylbut-2-en-2-yl)-1H-pyrazol-3-yl]carbonyl}pyrimidin-4-yl)amino]cyclopentyl}methyl sulfamate]
IC50: 0.01 to 0.1 µM
inhibition at 0.111 µM: 77%
